Experimental data published in US12070455B2, “Thienopyrrole compounds” (Gilead Sciences, Inc., priority 2021, dated 2024).

Legend:
TLR7 = target: T1, TLR7 (Homo sapiens, UniProt Q9NYK1); test: TLR7 human peripheral blood mononuclear cell (PBMC) cell-based assay; conditions: human PBMCs; 1 h with test antagonist, then TLR7 agonist GS-986 400 nM for 6 h; cytokines (IL-6 and IFNα) in supernatant; read-out: TLR-7 EC50
T1 construct: Human peripheral blood mononuclear cells (PBMCs) consist of lymphocytes, monocytes and dendritic cells that express TLR7, TLR8 and TLR9; endogenous in cells; host or cells: cryopreserved human PBMCs from healthy donors
T1 sequence (Q9NYK1 27-1049): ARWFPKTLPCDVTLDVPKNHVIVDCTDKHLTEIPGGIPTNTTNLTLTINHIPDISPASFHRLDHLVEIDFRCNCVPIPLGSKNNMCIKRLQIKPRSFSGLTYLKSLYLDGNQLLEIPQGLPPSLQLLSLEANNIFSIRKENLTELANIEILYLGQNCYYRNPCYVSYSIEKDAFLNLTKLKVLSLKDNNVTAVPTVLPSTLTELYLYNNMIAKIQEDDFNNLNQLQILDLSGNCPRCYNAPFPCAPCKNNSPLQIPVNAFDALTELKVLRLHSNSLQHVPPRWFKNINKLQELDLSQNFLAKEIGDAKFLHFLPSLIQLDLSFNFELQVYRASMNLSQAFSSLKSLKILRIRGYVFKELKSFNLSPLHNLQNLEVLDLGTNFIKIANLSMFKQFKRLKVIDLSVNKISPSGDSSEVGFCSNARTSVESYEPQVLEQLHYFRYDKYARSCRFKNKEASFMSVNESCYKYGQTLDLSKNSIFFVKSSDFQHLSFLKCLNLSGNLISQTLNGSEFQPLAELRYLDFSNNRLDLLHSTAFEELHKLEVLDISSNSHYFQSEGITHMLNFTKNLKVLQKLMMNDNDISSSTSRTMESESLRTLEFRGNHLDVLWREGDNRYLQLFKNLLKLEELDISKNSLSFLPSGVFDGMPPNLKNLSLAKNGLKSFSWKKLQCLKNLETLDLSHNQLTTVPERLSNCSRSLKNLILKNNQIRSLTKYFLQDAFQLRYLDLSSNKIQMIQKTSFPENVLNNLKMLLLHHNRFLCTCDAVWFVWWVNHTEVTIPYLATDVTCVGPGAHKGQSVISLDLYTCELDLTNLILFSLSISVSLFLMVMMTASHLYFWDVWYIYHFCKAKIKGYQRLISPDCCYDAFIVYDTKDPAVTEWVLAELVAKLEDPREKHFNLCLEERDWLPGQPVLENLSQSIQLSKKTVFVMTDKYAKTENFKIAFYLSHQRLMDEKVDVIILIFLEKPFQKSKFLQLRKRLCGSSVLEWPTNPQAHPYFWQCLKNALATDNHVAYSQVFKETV
Description: TLR7/9 Human Peripheral Blood Mononuclear Cell (PBMC) Cell-Based Assay
Human peripheral blood mononuclear cells (PBMCs) consist of lymphocytes, monocytes and dendritic cells that express TLR7, TLR8 and TLR9. These cells respond to TLR7, TLR8 and TLR9 ligand stimulation and produce cytokines and chemokines in vitro and in vivo. Human PBMCs are therefore suitable to be used in a cell-based assay to assess the in vitro potency of a TLR 7, 8, and/or 9 antagonist.
Cryopreserved human PBMCs from healthy donors were thawed and resuspended in RPMI-1640 media with L-glutamine (Corning) supplemented with 10% Fetal Bovine Serum (Hyclone) and 1× Penicillin-Streptomycin (Corning). After counting, the cell density was adjusted to 2 million cells/ml and incubated for 1 hour at 37° C., 5% CO2 for recovery. Following the recovery, the cells were plated by adding 50 μl per well (100,000 cells) to 384-well cell culture plates (Greiner) containing 250 nl of test antagonists in 100% DMSO per well, in a 10 points dose response in quadruplicates. PBMCs were incubated in the presence of test antagonists for one hour at 37° C., 5% CO2 before being stimulated with a TLR7 or TLR9 agonist. GS-986 (Gilead Sciences) was used as the TLR7 agonist at a final concentration of 400 nM. ODN-2216 (InvivoGen) was used as the TLR9 agonist at a final concentration of 3 μM. PBMCs were incubated in the presence of the test antagonist and the TLR7 (or TLR9) agonist for an additional 6 hours at 37° C., 5% CO2. At the end of the incubation, the cell culture plates were centrifuged at 500 g for 5 min, and the cell culture supernatant was collected. The level of cytokines (IL-6 and IFNα) in the supernatant was measured by electrochemiluminescence immunoassays (Mesoscale Discovery) following manufacturer's recommended protocols. The level of cytokine measured was plotted against the test antagonist concentration and fitted to a sigmoidal function to determine the EC50, which are shown below in Table 6.

TLR8 = target: T2, TLR8 (Homo sapiens, UniProt Q9NR97); test: TLR8 human peripheral blood mononuclear cell (PBMC) cell-based assay; conditions: human PBMCs; 1 h with antagonist, then TLR8 agonist Compound A 800 nM for 6 h; cytokines (TNFa and IL12p40) in supernatant; read-out: TLR-8 EC50
T2 construct: Human peripheral blood mononuclear cells (PBMCs) consist of lymphocytes, monocytes and dendritic cells that express TLR7, TLR8 and TLR9; endogenous in cells; host or cells: cryopreserved human PBMCs from healthy donors
T2 sequence (Q9NR97 27-1041): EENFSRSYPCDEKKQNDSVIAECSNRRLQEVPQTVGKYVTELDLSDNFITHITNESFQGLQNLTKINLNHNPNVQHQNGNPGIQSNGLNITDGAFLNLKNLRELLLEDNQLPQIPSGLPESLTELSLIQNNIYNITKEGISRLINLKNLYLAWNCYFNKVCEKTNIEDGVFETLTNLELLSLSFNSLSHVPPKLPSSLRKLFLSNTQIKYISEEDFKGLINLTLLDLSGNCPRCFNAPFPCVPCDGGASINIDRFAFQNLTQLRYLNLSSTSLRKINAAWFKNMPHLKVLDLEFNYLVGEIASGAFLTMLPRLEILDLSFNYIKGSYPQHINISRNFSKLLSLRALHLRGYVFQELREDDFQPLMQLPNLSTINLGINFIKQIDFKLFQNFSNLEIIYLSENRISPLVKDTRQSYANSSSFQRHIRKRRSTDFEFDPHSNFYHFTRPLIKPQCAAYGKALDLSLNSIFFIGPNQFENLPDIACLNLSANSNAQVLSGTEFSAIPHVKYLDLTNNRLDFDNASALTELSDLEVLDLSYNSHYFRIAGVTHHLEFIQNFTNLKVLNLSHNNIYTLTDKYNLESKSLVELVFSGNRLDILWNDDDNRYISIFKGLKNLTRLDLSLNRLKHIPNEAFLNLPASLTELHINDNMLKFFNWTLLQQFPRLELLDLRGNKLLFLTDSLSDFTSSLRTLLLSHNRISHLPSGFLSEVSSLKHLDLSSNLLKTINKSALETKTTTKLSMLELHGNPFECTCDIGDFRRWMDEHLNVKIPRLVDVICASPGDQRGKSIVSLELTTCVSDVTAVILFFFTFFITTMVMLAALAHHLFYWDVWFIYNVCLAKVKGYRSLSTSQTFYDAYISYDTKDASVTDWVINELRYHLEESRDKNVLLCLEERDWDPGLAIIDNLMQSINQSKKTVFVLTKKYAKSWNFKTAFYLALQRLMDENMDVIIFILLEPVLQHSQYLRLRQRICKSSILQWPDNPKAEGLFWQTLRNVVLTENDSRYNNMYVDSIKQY
Experimental: TLR8 Human Peripheral Blood Mononuclear Cell (PBMC) Cell-Based Assay
Cryopreserved human PBMCs from healthy donors were thawed and resuspended in RPMI-1640 media with L-glutamine (Corning) supplemented with 10% Fetal Bovine Serum (Hyclone) and 1× Penicillin-Streptomycin (Corning). After counting, the cell density was adjusted to 2 million cells/ml and incubated for 1 hour at 37° C., 5% CO2 for recovery. Following the recovery, the cells were plated by adding 50 μl per well (100,000 cells) to 384-well cell culture plates (Greiner) containing 250 nl of test antagonists in 100% DMSO per well, in a 10 points dose response in quadruplicates. PBMCs were incubated in the presence of antagonists for one hour at 37° C., 5% CO2 before being stimulated with TLR8 agonist. Compound A (Gilead Sciences, U.S. Pat. No. 10,285,990) was used as the TLR8 agonist at a final concentration of 800 nM. PBMCs were incubated in the presence of antagonist and the TLR8 agonist for an additional 6 hours at 37° C., 5% CO2. At the end of the incubation, the cell culture plates were centrifuged at 500 g for 5 min, and the cell culture supernatant was collected. The level of cytokines (TNFa and IL12p40) in the supernatant was measured by electrochemiluminescence immunoassays (Mesoscale Discovery) following manufacturer's recommended protocols. The level of cytokine measured was plotted against the antagonist concentration and fitted to a sigmoidal function to determine the EC50, which are shown below in Table 6.

Structure (SMILES) | EC50 (TLR7) [nM] | EC50 (TLR8) [nM]
Cc1c(C2CCN(C(=O)[C@H]3COCCN3)CC2)sc2[nH]c(-c3cn4ncnc4c4c3COC4)c(C(C)C)c12 [Example 52] | 1.17 | 26.7
Cc1c(C2CCN(C(=O)[C@H]3C[C@@H](O)CN3)CC2)sc2[nH]c(-c3cn4ncnc4c4c3CCC4)c(C(C)C)c12 [Example 31] | 1.33 | 6.38
Cc1c(C2C[C@@H]3C[C@H]2CN3CC(N)=O)sc2[nH]c(-c3cn4ncnc4c4c3CCC4)c(C(C)C)c12 (stereo partly shown) [Example 8] | 0.69 | 0.14
Cc1c(C2CCC(N3CC4(CCN(C)C4=O)C3)CC2)sc2[nH]c(-c3cn4ncnc4c4c3CCC4)c(C(C)C)c12 (stereo not shown) [Example 30] | 0.86 | 1.29
CC(C)c1c(-c2cn3ncnc3c3c2CCC3)[nH]c2sc(C3CCN(C(=O)[C@H]4COCCN4)CC3)cc12 [Example 33] | 2.33 | 7.57
Cc1c(C2CCN(CC(N)=O)CC2)sc2[nH]c(-c3cn4ncnc4c4c3CCO4)c(C(C)C)c12 [Example 36] | 4.5 | 27.6
Cc1c(C23CCNCC2C3)sc2[nH]c(-c3cn4ncnc4c4c3CCC4)c(C(C)C)c12 (stereo not shown) [Example 5, 2-(3-azabicyclo[4.1.0]heptan-6-yl)-5-(8,9-dihydro-7H-cyclopenta[c][1,2,4]triazolo[1,5-a]pyridin-6-yl)-4-isopropyl-3-methyl-6H-thieno[2,3-b]pyrrole] | 0.23 | 1.76
Cc1nc2c3c(c(-c4[nH]c5sc(C6CCN(C(=O)[C@H]7COCCN7)CC6)c(C)c5c4C(C)C)cn2n1)COC3 [Example 51, (R)-(4-(4-isopropyl-3-methyl-5-(2-methyl-7,9-dihydrofuro[3,4-c][1,2,4]triazolo[1,5-a]pyridin-6-yl)-6H-thieno[2,3-b]pyrrol-2-yl)piperidin-1-yl)(morpholin-3-yl)methanone] | 2.46 | 96.6
Cc1c(C2CCN(Cc3ccn(C)n3)CC2)sc2[nH]c(-c3cn4ncnc4c4c3CCC4)c(C(C)C)c12 [Example 13] | 1.44 | 5.84
CC(C)c1c(-c2cn3ncnc3c3c2CCC3)[nH]c2sc(C3CCN(CC(N)=O)CC3)cc12 [Example 34] | 0.58 | 1.57
Cc1c(C2CCNCC2)sc2[nH]c(-c3cn4ncnc4c4c3CCO4)c(C(C)C)c12 [Example 35] | 0.33 | 7.88
Cc1nc2c3c(c(-c4[nH]c5sc([C@@H]6C[C@H]7CC[C@@H](C6)N7CC(N)=O)c(C)c5c4C(C)C)cn2n1)COC3 [Example 46] | 1.21 | 77.9
Cc1c([C@@H]2C[C@@H]3C[C@H]2CN3CC(N)=O)sc2[nH]c(-c3cn4ncnc4c4c3COC4)c(C(C)C)c12 [Example 48] | 0.39 | 0.36
Cc1c(C2CCN(C(=O)[C@@H]3COCCN3)CC2)sc2[nH]c(-c3cn4ncnc4c4c3CCC4)c(C(C)C)c12 [Example 15] | 0.29 | 5.26
Cc1c(C2CCC(N3CC4(CCNC4=O)C3)CC2)sc2[nH]c(-c3cn4ncnc4c4c3CCC4)c(C(C)C)c12 (stereo not shown) [Example 27] | 0.26 | 2.55
Cc1c(C2CCN(C(=O)[C@H]3C[C@@]4(CNCCO4)C3)CC2)sc2[nH]c(-c3cn4ncnc4c4c3CCC4)c(C(C)C)c12 [Example 25] | 0.05 | 1.38
Cc1c(-c2ccc(N3CCNCC3)cc2)sc2[nH]c(-c3cn4ncnc4c4c3CCC4)c(C(C)C)c12 [Example 21, 5-(8,9-dihydro-7H-cyclopenta[c][1,2,4]triazolo[1,5-a]pyridin-6-yl)-4-isopropyl-3-methyl-2-(4-(piperazin-1-yl)phenyl)-6H-thieno[2,3-b]pyrrole] | 0.51 | 1.32
Cc1c(C2CCC(N3CC(C)(O)C3)CC2)sc2[nH]c(-c3cn4ncnc4c4c3CCC4)c(C(C)C)c12 (stereo not shown) [Example 28] | 0.15 | 1.57
Cc1c(C2C[C@@H]3C[C@H]2CN3)sc2[nH]c(-c3cn4ncnc4c4c3CCC4)c(C(C)C)c12 (stereo partly shown) [Example 3] | 0.77 | 0.31
Cc1c(C2CCN(S(=O)(=O)N3CCNCC3)CC2)sc2[nH]c(-c3cn4ncnc4c4c3CCC4)c(C(C)C)c12 [Example 11, 5-(8,9-dihydro-7H-cyclopenta[c][1,2,4]triazolo[1,5-a]pyridin-6-yl)-4-isopropyl-3-methyl-2-(1-(piperazin-1-ylsulfonyl)piperidin-4-yl)-6H-thieno[2,3-b]pyrrole] | 0.32 | 4.7
